# Measurements: US20090291942A1, “IMIDAZO PYRIDINE DERIVATIVES” (priority 2008, published 2009)
# Counter-ions that a name gives are not always drawn.
# Biological target: T1, human GPR4 (Homo sapiens, UniProt P46093)
# T1 construct: expressed in transfected cells
# Assay: Cell-based assay for human GPR4 activity (pH-induced cAMP formation, HTRF)
# Conditions: HeLa cells stably expressing human GPR4, pH-induced cAMP formation
# Method: a) Cell-Based Assay for Human GPR4 Activity
# HeLa cells stably expressing human GPR4 were established by transfecting the cells with a construct containing the human GPR4 coding sequence. The cells were grown in DMEM/HAM's F12 medium supplemented with 10% fetal calf serum (FCS), 100 u/ml penicillin, 100 μg/ml streptomycin and 400 μg/ml G418 and 10 mM Hepes pH 8.0. pH-induced formation of cAMP was determined using the HTRF technology as provided by CisBio Inc. The cells were seeded in 384-well plates and cultured for 24 hours at 37° C., 5% CO2 before performing the assay. Medium was removed and 10 μl buffer A (HBS, 10 mM Hepes, pH 8, 2 mM IBMX) was added. For compound testing, buffer A with 2× concentrated compounds was used. Cells were incubated for 15 min at room temperature. 10 μl buffer B (HBS, 30 mM Hepes, specific pH) was added to reach the appropriate final pH for stimulation (see below) and incubation was continued for 15 min at room temperature. […] HBS: 130 mM NaCl, 0.9 mM NaH2PO4, 5.4 mM KCl, 0.8 mM MgSO4, CaCl2 1.8 mM, 25 mM glucose, 10-30 mM Hepes. Adjustment of HBS buffers: Bf A Bf B Final stimulation pH (1 volume buffer A+1 volume buffer B)
# Compounds were diluted from fresh stock solutions at 10 mM in DMSO to 2 mM and then used for serial dilutions in DMSO.
# T1 sequence (P46093 whole entry): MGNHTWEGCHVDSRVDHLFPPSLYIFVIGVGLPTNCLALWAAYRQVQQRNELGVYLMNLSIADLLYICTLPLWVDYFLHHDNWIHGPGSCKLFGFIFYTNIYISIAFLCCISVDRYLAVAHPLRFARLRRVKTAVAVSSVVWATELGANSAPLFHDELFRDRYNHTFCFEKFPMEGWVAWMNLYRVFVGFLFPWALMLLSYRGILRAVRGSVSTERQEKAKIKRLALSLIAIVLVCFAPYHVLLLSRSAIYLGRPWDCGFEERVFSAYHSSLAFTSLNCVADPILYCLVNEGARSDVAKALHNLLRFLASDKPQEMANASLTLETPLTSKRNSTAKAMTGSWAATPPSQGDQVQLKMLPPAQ
row,Compound,IC50
1,"CCc1nc2c(C)cc(C)nc2n1Cc1ccc(/C=C/CN2CCN(C(C)(C)C)CC2)cc1 [Example 51, 3-{4-[(E)-3-(4-tert-Butyl-piperazin-1-yl)-propenyl]-benzyl}-2-ethyl-5,7-dimethyl-3H-imidazo[4,5-b]pyridine]",161 nM
2,"CCc1nc2c(C)cc(C)nc2n1Cc1ccc(CCCN2CCN(CC)C(C)C2)cc1 (stereo not shown) [Example 22, 2-Ethyl-3-{4-[3-(4-ethyl-3-methyl-piperazin-1-yl)-propyl]-benzyl}-5,7-dimethyl-3H-imidazo[4,5-b]pyridine dihydrochloride]",223 nM
3,"CCc1nc2c(C)cc(C)nc2n1Cc1ccc(/C=C/CN2CCN(C)C[C@@H]2C(C)C)cc1 [Example 70, 2-Ethyl-3-{4-[(E)-3-((S)-2-isopropyl-4-methyl-piperazin-1-yl)-propenyl]-benzyl}-5,7-dimethyl-3H-imidazo[4,5-b]pyridine dihydrochloride]",496 nM
4,"CCc1nc2c(C)cc(C)nc2n1Cc1ccc(/C=C/CN2CCN(C(CC)CC)CC2)cc1 [Example 53, 2-Ethyl-3-(4-{(E)-3-[4-(1-ethyl-propyl)-piperazin-1-yl]-propenyl}-benzyl)-5,7-dimethyl-3H-imidazo[4,5-b]pyridine dihydrochloride]",194 nM
5,"CCCC(C)N1CCN(CCCc2ccc(Cn3c(CC)nc4c(C)cc(C)nc43)cc2)CC1 (stereo not shown) [Example 14, 2-Ethyl-5,7-dimethyl-3-(4-{3-[4-(1-methyl-butyl)-piperazin-1-yl]-propyl}-benzyl)-3H-imidazo[4,5-b]pyridine]",217 nM
6,"CCc1nc2c(C)cc(C)nc2n1Cc1ccc(CCCN2C[C@H]3C[C@@H]2CN3CC)cc1 [Example 26, 2-Ethyl-3-{4-[3-((1R,4R)-5-ethyl-2,5-diaza-bicyclo[2.2.1]hept-2-yl)-propyl]-benzyl}-5,7-dimethyl-3H-imidazo[4,5-b]pyridine]",877 nM
7,"CCc1nc2c(C)cc(C)nc2n1Cc1ccc(/C=C/CN2CCN(C3CCCCC3)CC2)cc1 [Example 57, 3-{4-[(E)-3-(4-Cyclohexyl-piperazin-1-yl)-propenyl]-benzyl}-2-ethyl-5,7-dimethyl-3H-imidazo[4,5-b]pyridine dihydrochloride]",121 nM
8,"CCc1nc2c(C)cc(C)nc2n1Cc1ccc(CCCN2CCN(C(C)C)CC2)cc1 [Example 8, 2-Ethyl-3-{4-[3-(4-isopropyl-piperazin-1-yl)-propyl]-benzyl}-5,7-dimethyl-3H-imidazo[4,5-b]pyridine dihydrochloride]",274 nM
9,"CCc1nc2c(C)cc(C)nc2n1Cc1ccc(CCCCN2CCN(C(C)(C)C)CC2)cc1 [Example 110, 3-{4-[4-(4-tert-Butyl-piperazin-1-yl)-butyl]-benzyl}-2-ethyl-5,7-dimethyl-3H-imidazo[4,5-b]pyridine dihydrochloride]",98 nM
10,"Cc1cc(C)c2nc(C(F)(F)F)n(Cc3ccc(/C=C/CN4CCC(N5CCCCC5)CC4)cc3)c2n1 [Example 87, 1′-{(E)-3-[4-(5,7-Dimethyl-2-trifluoromethyl-imidazo[4,5-b]pyridin-3-ylmethyl)-phenyl]-allyl}-[1,4′]bipiperidinyl dihydrochloride]",296 nM
11,"CCc1nc2c(C)cc(C)nc2n1Cc1ccc(/C=C/CN2CCN(C(C)C)C(CC)C2)cc1 (stereo not shown) [Example 72, 2-Ethyl-3-{4-[(E)-3-(3-ethyl-4-isopropyl-piperazin-1-yl)-propenyl]-benzyl}-5,7-dimethyl-3H-imidazo[4,5-b]pyridine dihydrochloride]",452 nM
12,"CCc1nc2c(C)cc(C)nc2n1Cc1ccc(/C=C/CN2CCN(CCN(C(C)C)C(C)C)CC2)cc1 [Example 61, [2-(4-{(E)-3-[4-(2-Ethyl-5,7-dimethyl-imidazo[4,5-b]pyridin-3-ylmethyl)-phenyl]-allyl}-piperazin-1-yl)-ethyl]-diisopropyl-amine trihydrochloride]",499 nM
13,"CCc1nc2c(C)cc(C)nc2n1Cc1ccc(/C=C/Cn2ccnc2)cc1 [Example 80, 2-Ethyl-3-[4-((E)-3-imidazol-1-yl-propenyl)-benzyl]-5,7-dimethyl-3H-imidazo[4,5-b]pyridine hydrochloride]",485 nM
